Reference: article PMC3382171 (PLoS ONE, 2012)

What was measured:
Experiment in all cases: biochemical
Set-up in all cases: Invitrogen SelectScreen kinase panel, percent inhibition at 1 uM, ATP at Km
Conditions in all cases: read-out: Invitrogen KSS %Inh at 1 µM
ABL1 = ABL1 (Homo sapiens, UniProt P00519)
Experimental: (§1) The METi and RAFi were screened against kinase panels (SelectScreen, Invitrogen; University of Dundee, Division of Signal Transduction Therapy, UK; Upstate Biotechnology/Millipore, Billerica, MA). In these selectivity assays the concentration of ATP was set to the Km value of ATP for each kinase tested to allow for a relative potency comparison between the various kinases. The compounds were tested at 1 µM final concentration. […] Supplementary file pone.0039653.s002.pdf: Figure S2 Kinase Selectivity Screen of RAFi. (A) Kinase selectivity screen (KSS) performed at University of Dundee (Division of Signal Transduction Therapy). Values in % inhibition of phosphorylation given 1 µM of RAFi compared to control. (B) KSS performed at Invitrogen (Selectscreen Service) compared to control. Values in % inhibition of phosphorylation given 1 µM of RAFi. (C) Cell based dose response kinase inhibition of indicated kinases by RAFi. (PDF) Click here for additional data file.

ACVR1B (ALK4) = ACVR1B (ALK4) (Homo sapiens, UniProt P36896)
Experimental: as §1

BLK = BLK (Homo sapiens, UniProt P51451)
Experimental: as §1

CDK2/CyclinA = CDK2/CyclinA (Homo sapiens, UniProt P24941)
Experimental: as §1

CDK5/p35 = biological target: T1, CDK5/p35 (Homo sapiens, UniProt Q00535)
T1 construct: p35
T1 sequence (Q00535 whole entry): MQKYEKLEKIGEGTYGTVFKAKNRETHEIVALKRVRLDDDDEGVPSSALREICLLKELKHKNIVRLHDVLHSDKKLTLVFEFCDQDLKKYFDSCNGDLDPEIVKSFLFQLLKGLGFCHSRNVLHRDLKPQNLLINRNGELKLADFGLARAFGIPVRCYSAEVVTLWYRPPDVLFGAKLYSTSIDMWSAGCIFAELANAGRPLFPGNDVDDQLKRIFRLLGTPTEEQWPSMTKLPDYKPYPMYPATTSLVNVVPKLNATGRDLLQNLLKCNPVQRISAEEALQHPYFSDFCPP
T1 sequence (Q15078 whole entry partner): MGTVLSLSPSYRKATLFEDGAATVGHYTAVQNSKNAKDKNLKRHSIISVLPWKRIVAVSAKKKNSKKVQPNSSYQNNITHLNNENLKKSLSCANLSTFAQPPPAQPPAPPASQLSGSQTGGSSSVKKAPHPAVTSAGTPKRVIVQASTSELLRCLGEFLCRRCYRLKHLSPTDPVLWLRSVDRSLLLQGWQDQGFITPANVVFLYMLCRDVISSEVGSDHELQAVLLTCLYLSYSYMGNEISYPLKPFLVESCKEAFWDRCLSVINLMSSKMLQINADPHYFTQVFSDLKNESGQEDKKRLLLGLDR
Experimental: as §1

CHEK1 (CHK1) = CHEK1 (CHK1) (Homo sapiens, UniProt O14757)
CHEK1 (CHK1), sequence (O14757 whole entry): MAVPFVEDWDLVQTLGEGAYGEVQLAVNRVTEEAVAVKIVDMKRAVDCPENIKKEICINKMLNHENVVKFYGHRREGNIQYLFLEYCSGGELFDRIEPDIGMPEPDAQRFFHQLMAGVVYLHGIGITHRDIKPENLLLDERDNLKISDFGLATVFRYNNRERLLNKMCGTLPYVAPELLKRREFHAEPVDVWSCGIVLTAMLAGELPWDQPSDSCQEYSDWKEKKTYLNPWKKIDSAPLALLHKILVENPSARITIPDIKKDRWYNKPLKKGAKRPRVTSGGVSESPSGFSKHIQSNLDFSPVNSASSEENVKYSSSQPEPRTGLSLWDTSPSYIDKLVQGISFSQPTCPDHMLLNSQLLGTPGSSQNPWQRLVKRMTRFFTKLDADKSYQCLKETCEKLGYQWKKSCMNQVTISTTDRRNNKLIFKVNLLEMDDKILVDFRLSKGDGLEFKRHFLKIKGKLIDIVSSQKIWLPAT
Experimental: as §1

CLK1 = CLK1 (Homo sapiens, UniProt P49759)
Experimental: as §1

ERBB2 (HER2) = ERBB2 (HER2) (Homo sapiens, UniProt P04626)
Experimental: as §1

ERBB4 (HER4) = ERBB4 (HER4) (Homo sapiens, UniProt Q15303)
Experimental: as §1

FLT3 D835Y = FLT3 D835Y (Homo sapiens, UniProt P36888, D835Y)
Experimental: as §1

IKBKB (IKK beta) = IKBKB (IKK beta) (Homo sapiens, UniProt O14920)
Experimental: as §1

IRAK4 = IRAK4 (Homo sapiens, UniProt Q9NWZ3)
Experimental: as §1

ITK = ITK (Homo sapiens, UniProt Q08881)
ITK, sequence (Q08881 whole entry): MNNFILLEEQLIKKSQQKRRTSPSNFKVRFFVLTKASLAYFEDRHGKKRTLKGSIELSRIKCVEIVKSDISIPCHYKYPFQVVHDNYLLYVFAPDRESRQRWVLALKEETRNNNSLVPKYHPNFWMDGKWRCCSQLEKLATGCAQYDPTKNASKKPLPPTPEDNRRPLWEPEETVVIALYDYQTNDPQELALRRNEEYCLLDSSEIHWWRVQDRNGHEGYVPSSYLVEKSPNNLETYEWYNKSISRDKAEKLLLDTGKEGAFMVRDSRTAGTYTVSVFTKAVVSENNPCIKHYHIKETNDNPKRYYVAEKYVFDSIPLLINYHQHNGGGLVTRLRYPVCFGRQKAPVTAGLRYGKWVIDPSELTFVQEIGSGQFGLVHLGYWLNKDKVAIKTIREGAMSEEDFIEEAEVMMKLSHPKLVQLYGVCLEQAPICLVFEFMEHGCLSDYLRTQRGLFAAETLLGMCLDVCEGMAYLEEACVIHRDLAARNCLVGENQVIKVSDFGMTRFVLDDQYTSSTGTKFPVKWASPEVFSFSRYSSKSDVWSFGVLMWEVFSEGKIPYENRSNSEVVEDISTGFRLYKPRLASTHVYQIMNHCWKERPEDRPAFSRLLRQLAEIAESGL
Experimental: as §1

MST1R (RON) = MST1R (RON) (Homo sapiens, UniProt Q04912)
MST1R (RON), sequence (Q04912 whole entry): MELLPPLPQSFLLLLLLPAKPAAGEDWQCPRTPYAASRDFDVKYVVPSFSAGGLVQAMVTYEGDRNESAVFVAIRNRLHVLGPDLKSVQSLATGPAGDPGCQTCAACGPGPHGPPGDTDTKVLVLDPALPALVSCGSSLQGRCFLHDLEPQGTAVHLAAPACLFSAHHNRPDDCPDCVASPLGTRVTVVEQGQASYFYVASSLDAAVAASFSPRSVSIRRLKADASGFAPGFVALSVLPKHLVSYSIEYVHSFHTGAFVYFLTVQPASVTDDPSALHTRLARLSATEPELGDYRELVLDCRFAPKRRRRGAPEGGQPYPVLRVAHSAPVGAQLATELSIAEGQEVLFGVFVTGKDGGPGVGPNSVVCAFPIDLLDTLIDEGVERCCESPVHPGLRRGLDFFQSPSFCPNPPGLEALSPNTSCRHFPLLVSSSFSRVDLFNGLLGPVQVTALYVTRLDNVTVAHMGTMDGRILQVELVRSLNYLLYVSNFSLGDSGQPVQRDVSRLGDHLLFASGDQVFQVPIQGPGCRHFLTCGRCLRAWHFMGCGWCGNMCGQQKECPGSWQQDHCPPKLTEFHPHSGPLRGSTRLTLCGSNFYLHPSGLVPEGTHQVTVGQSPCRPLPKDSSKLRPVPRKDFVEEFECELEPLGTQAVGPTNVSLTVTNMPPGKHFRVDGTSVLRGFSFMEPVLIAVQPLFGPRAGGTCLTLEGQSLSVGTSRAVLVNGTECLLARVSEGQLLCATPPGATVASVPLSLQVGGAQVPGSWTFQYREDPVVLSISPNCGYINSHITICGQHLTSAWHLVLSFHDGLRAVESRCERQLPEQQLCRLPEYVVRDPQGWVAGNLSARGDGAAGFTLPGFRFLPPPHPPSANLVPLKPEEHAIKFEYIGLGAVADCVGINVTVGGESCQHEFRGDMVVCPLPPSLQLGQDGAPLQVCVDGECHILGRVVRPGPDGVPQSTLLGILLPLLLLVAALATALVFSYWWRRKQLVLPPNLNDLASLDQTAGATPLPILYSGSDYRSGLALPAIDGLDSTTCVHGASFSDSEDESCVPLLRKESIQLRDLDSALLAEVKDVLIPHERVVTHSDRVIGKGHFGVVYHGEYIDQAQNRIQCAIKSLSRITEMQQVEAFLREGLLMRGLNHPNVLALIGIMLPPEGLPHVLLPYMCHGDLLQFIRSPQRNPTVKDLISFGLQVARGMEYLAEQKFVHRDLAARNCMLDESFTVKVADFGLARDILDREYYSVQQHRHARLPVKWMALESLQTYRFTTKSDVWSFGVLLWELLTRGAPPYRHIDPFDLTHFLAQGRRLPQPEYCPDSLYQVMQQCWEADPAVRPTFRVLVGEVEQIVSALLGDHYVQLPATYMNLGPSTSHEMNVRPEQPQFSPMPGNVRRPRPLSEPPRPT
Experimental: as §1

MYLK2 (skMLCK) = MYLK2 (skMLCK) (Homo sapiens, UniProt Q9H1R3)
Experimental: as §1

NEK2 = NEK2 (Homo sapiens, UniProt P51955)
Experimental: as §1

PDGFRA (PDGFR alpha) = PDGFRA (PDGFR alpha) (Homo sapiens, UniProt P16234)
PDGFRA (PDGFR alpha), sequence (P16234 whole entry): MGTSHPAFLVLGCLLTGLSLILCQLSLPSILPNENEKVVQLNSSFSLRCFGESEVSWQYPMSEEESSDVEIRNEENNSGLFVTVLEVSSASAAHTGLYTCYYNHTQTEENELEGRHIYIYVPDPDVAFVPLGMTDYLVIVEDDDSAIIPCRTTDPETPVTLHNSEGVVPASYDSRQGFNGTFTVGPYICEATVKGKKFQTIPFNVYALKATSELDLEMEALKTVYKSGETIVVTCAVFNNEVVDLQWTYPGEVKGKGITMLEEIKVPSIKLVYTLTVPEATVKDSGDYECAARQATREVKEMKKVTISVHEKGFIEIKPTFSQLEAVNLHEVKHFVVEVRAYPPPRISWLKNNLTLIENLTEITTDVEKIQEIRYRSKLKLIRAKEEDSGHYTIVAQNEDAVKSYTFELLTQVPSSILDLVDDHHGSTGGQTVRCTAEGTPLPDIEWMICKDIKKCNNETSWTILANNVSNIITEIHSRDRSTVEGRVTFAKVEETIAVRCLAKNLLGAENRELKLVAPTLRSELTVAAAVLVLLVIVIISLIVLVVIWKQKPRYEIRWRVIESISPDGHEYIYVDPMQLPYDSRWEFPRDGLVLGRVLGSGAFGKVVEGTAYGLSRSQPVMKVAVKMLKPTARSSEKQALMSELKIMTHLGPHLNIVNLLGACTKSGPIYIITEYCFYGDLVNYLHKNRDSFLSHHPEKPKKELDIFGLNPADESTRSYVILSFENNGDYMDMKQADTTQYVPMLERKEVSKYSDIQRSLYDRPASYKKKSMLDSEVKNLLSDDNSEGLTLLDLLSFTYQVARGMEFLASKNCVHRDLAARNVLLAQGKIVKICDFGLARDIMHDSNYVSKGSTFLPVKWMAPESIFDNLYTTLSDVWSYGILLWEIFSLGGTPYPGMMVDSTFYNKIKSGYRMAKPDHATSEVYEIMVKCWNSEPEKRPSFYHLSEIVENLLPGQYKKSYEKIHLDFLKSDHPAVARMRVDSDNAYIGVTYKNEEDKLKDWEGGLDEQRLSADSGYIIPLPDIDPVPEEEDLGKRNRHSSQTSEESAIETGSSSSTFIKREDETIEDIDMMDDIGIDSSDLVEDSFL
Experimental: as §1

PDGFRB (PDGFR beta) = PDGFRB (PDGFR beta) (Homo sapiens, UniProt P09619)
Experimental: as §1

PIK3CG (p110 gamma) = PIK3CG (p110 gamma) (Homo sapiens, UniProt P48736)
Experimental: as §1

PRKCB1 (PKC beta I) = biological target: T2, PRKCB1 (PKC beta I) (Homo sapiens, UniProt P05771)
T2 construct: gene PRKCB; isoform beta I
T2 sequence (P05771 whole entry, canonical isoform): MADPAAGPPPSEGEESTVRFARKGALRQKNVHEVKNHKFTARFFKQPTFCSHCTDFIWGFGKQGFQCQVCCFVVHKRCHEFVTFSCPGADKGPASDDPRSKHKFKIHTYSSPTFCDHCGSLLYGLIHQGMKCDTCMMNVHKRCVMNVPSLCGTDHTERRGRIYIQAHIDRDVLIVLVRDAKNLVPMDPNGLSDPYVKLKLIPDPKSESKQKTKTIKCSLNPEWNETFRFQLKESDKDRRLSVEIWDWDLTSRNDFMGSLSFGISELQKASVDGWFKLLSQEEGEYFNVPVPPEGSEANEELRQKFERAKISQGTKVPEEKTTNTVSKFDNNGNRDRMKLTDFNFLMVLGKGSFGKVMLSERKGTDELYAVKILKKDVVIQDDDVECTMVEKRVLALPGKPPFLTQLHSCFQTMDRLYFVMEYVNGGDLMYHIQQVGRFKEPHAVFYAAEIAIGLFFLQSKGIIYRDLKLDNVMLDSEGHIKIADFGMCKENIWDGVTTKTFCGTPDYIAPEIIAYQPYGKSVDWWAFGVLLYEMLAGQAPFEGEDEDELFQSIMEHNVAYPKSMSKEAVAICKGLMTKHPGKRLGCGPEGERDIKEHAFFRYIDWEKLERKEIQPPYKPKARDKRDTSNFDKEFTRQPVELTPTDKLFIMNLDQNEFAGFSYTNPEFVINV
Experimental: as §1

PRKCZ (PKC zeta) = PRKCZ (PKC zeta) (Homo sapiens, UniProt Q05513)
Experimental: as §1

YES1 = YES1 (Homo sapiens, UniProt P07947)
Experimental: as §1

N#CCCNc1nccc(-c2cn(CC(F)F)nc2-c2cnc3[nH]ccc3c2)n1 [RAFi, PF-04880594] was tested, and the inhibition at 1 µM (ABL1) was 6%, the inhibition at 1 µM (ACVR1B (ALK4)) was 7% and the inhibition at 1 µM (BLK) was 7%. It also gave an inhibition at 1 µM (CDK2/CyclinA) of 18%, an inhibition at 1 µM (CDK5/p35) of 9% and an inhibition at 1 µM (CHEK1 (CHK1)) of 3%. It also gave an inhibition at 1 µM (CLK1) of 1%, an inhibition at 1 µM (ERBB2 (HER2)) of 10% and an inhibition at 1 µM (ERBB4 (HER4)) of 24%. For the same compound, the inhibition at 1 µM (FLT3 D835Y) was 57%, the inhibition at 1 µM (IKBKB (IKK beta)) was 0% and the inhibition at 1 µM (IRAK4) was -16%. The inhibition at 1 µM (ITK) was 0%, the inhibition at 1 µM (MST1R (RON)) was 2% and the inhibition at 1 µM (MYLK2 (skMLCK)) was 20%. The inhibition at 1 µM (NEK2) was 40%, the inhibition at 1 µM (PDGFRA (PDGFR alpha)) was 10% and the inhibition at 1 µM (PDGFRB (PDGFR beta)) was 2%. The inhibition at 1 µM (PIK3CG (p110 gamma)) was 12%, the inhibition at 1 µM (PRKCB1 (PKC beta I)) was 36% and the inhibition at 1 µM (PRKCZ (PKC zeta)) was -7%. It also gave an inhibition at 1 µM (YES1) of 16%.
